Assay [1] concerns Human EDG-2/HepG2 cells. Nature of the assay: Inhibitory activity on LPA-accelerated [3H] thymidine incorporation (cell proliferation). It is filed as cell-based. Conditions: 50% inhibition of LPA-induced increase of [3H] thymidine incorporation. An excerpt:
The human EDG-2 expression plasmid was introduced into HepG2 cells by electroporation. After the introduction, culturing was continued while exchanging selective media every 3 to 4 days, thereby obtaining an expressed colony. Regarding these cells, Ca-influx and cell-proliferation by LPA, level of [^3H] LPA binding and the like were inspected to select a cell line which highly expresses human EDG-2 (human EDG-2/HepG2).
Human EDG-2/HepG2 cells suspended in 10% bovine serum-containing DMEM (Dulbecco's modified eagle medium) were plated on a 96-well plate and, on the next day, the medium was exchanged with serum-free DMEM. 24 hours later, the medium was exchanged with DMEM containing LPA or DMEM containing no LPA, cells were cultured for further 16 hours, and [^3H] thymidine was then added. After culturing for 8 hours subsequent to the addition of [^3H] thymidine, cells were washed with PBS (phosphate-buffered saline), and the amount of [^3H] thymidine incorporated into the cells were assayed by Betaplate filter counter system (Amersham Pharmacia Biotech). The difference between the amount of [^3H] thymidine incorporated in the LPA-added well and the amount of [^3H] thymidine incorporated in the well containing no LPA represents the amount of [^3H] thymidine incorporation accelerated by LPA. […] The test compounds were added immediately before the LPA addition.

Assay [2] has as its target T1, human EDG-2 (Homo sapiens, UniProt Q92633).
T1 construct: cDNA of the cloned human EDG-2 was introduced into pEFneo, which is an animal expression vector; expressed in transfected cells; host or cells: HepG2
Kind of assay: Inhibitory activity on LPA-induced elevation of intracellular Ca2+ level. Type of assay: cell-based. The following applies: 50% inhibition of elevation of intracellular Ca2+ level by LPA, human EDG-2/HepG2 cells, fura-2. The method, boiled down:
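Stably transfected HepG2 cells loaded with fura-2/AM (45 min, room temperature) in 0.1% BSA HEPES buffer. Test compound added before LPA, and the LPA-evoked intracellular Ca2+ rise measured fluorometrically. IC50 for inhibition derived.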

T1 sequence (Q92633 whole entry): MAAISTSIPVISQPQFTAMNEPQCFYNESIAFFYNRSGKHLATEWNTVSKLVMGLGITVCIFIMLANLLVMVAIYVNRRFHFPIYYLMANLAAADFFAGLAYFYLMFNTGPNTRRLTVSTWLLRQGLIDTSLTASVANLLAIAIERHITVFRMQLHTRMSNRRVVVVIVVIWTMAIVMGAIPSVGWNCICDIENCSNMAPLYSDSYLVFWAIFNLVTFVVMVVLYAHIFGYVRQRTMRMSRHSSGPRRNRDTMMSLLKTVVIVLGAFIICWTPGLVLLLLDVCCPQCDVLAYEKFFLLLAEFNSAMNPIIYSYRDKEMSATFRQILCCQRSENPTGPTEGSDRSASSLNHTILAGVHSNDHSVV

Turning to `Cc1noc(-c2ccc(CNCc3ccco3)cc2)c1NC(=O)OC(C)c1ccccc1Cl` (stereo not shown) [Compound 106, 1-(2-Chlorophenyl)ethyl N-[5-(4-{[(2-furylmethyl)amino]methyl}phenyl)-3-methyl-4-isoxazolyl]carbamate], the IC50 in assay [1] lay within 1000 to 3000 nM; in assay [2], 3000 to 10000 nM.

As to `Cc1noc(-c2ccc(CSCc3ccco3)cc2)c1NC(=O)OC(C)c1ccccc1Cl` (stereo not shown) [Compound 107, 1-(2-Chlorophenyl)ethyl N-[5-(4-{[(2-furylmethyl)sulfanyl]methyl}phenyl)-3-methyl-4-isoxazolyl]carbamate], the IC50 was in the range of 30 to 100 nM in assay [1] and 3000 to 10000 nM in assay [2].

With `CCSCc1ccc(-c2onc(C)c2NC(=O)OC(C)c2ccccc2Cl)cc1` (stereo not shown) [Compound 108, 1-(2-Chlorophenyl)ethyl N-(5-{4-[(ethylsulfanyl)methyl]phenyl}-3-methyl-4-isoxazolyl)carbamate], the 50% inhibitory concentration (IC50) in assay [1] lay in the range of 100 to 300 nM; in assay [2], 3000 to 10000 nM.

Regarding `CCCCCNCc1ccc(-c2onc(C)c2NC(=O)OC(C)c2ccccc2Cl)cc1` (stereo not shown) [Compound 109, 1-(2-Chlorophenyl)ethyl N-(3-methyl-5-{4-[(pentylamino)methyl]phenyl}-4-isoxazolyl)carbamate], the values for the IC50 in assay [1] and in assay [2] were 1000 to 3000 nM and 10000 to 30000 nM, respectively.

With `Cc1noc(-c2ccc(CNCCc3cccnc3)cc2)c1NC(=O)OC(C)c1ccccc1Cl` (stereo not shown) [Compound 110, 1-(2-Chlorophenyl)ethyl N-{3-methyl-5-[4-({[2-(3-pyridyl)ethyl]amino}methyl)-phenyl]-4-isoxazolyl}carbamate], the values for the IC50 in assay [1] and in assay [2] were 300 to 1000 nM and 10000 to 30000 nM, respectively.

For the compound `Cc1noc(-c2ccc(CNCCc3ccncc3)cc2)c1NC(=O)OC(C)c1ccccc1Cl` (stereo not shown) [Compound 111, 1-(2-Chlorophenyl)ethyl N-{3-methyl-5-[4-({[2-(4-pyridyl)ethyl]amino}methyl)phenyl]-4-isoxazolyl}carbamate], the half-maximal inhibitory concentration (IC50) in assay [1] is 1000 to 3000 nM; in assay [2] it was 10000 to 30000 nM.

Turning to `Cc1noc(-c2ccc(CNCCF)cc2)c1NC(=O)OC(C)c1ccccc1Cl` (stereo not shown) [Compound 112, 1-(2-Chlorophenyl)ethyl N-[5-(4-{[(2-fluoroethyl)amino]methyl}phenyl)-3-methyl-4-isoxazolyl]carbamate], the IC50 in assay [1] was in the range of 300 to 1000 nM; in assay [2], 10000 to 30000 nM.

With `CCOC(=O)CCNCc1ccc(-c2onc(C)c2NC(=O)OC(C)c2ccccc2Cl)cc1` (stereo not shown) [Compound 113, Ethyl 3-({4-[4-({[1-(2-chlorophenyl)ethoxy]carbonyl}amino)-3-methyl-5-isoxazolyl]-benzyl}amino)propanoate], the IC50 in assay [1] lay within 100 to 300 nM; in assay [2] it was 10000 to 30000 nM.

Take `Cc1cnc(CNCc2ccc(-c3onc(C)c3NC(=O)OC(C)c3ccccc3Cl)cc2)cn1` (stereo not shown) [Compound 114, 1-(2-Chlorophenyl)ethyl N-{3-methyl-5-[4-({[(5-methyl-2-pyrazyl)methyl]amino}-methyl)phenyl]-4-isoxazoly}carbamate]: the values for the IC50 in assay [1] and in assay [2] were 300 to 1000 nM and 10000 to 30000 nM, respectively.

Turning to `CCNCc1ccc(-c2onc(C)c2NC(=O)OC(C)c2ccccc2Cl)cc1` (stereo not shown) [Compound 116, 1-(2-Chlorophenyl)ethyl N-(5-{4-[(ethylamino)methyl]phenyl}-3-methyl-4-isoxazolyl)-carbamate], the IC50 lay within 300 to 1000 nM in assay [1] and 30000 to 100000 nM in assay [2].

In the case of `CCCSCc1ccc(-c2onc(C)c2NC(=O)OC(C)c2ccccc2Cl)cc1` (stereo not shown) [Compound 117, 1-(2-Chlorophenyl)ethyl N-(3-methyl-5-{4-[(propylsulfanyl)methyl]phenyl}-4-isoxazolyl)-carbamate], the IC50 in assay [1] lay in the range of 30 to 100 nM; in assay [2], 3000 to 10000 nM.

As for `COC(=O)CSCc1ccc(-c2onc(C)c2NC(=O)OC(C)c2ccccc2Cl)cc1` (stereo not shown) [Compound 118, Methyl 2-({4-[4-({[1-(2-chlorophenyl)ethoxy]carbonyl}-amino)-3-methyl-5-isoxazolyl]-benzyl}-sulfanyl)acetate], the IC50 lay in the range of 100 to 300 nM in assay [1] and 1000 to 3000 nM in assay [2].

With `CCOC(=O)CSCc1ccc(-c2onc(C)c2NC(=O)OC(C)c2ccccc2Cl)cc1` (stereo not shown) [Compound 119, Ethyl 2-({4-[{4-(i [-(2-chlorophenyl)ethoxy]carbonyl}amino)-3-methyl-5-isoxazolyl]benzyl}-sulfanyl)acetate], the IC50 in assay [1] lay within 100 to 300 nM; in assay [2], 3000 to 10000 nM.

`Cc1noc(-c2ccc(CSCCO)cc2)c1NC(=O)OC(C)c1ccccc1Cl` (stereo not shown) [Compound 120, 1-(2-Chlorophenyl)ethyl N-[5-(4-{[(2-hydroxyethyl)sulfanyl]methyl}phenyl)-3-methyl-4-isoxazolyl]carbamate]: the IC50 in assay [1] lay in the range of 100 to 300 nM; in assay [2], 3000 to 10000 nM.

For the compound `Cc1noc(-c2ccc(CSCC(=O)O)cc2)c1NC(=O)OC(C)c1ccccc1Cl` (stereo not shown) [Compound 121, 2-({4-[4-({[1-(2-Chlorophenyl)ethoxy]carbonyl}amino)-3-methyl-5-isoxazolyl]benzyl}-sulfanyl)acetic acid], the IC50 in assay [1] is 30 to 100 nM; in assay [2], 3000 to 10000 nM.

As to `C=CCSCc1ccc(-c2onc(C)c2NC(=O)OC(C)c2ccccc2Cl)cc1` (stereo not shown) [Compound 123, 1-(2-Chlorophenyl)ethyl N-(5-{4-[(allylsulfanyl)methyl]phenyl}-3-methyl-4-isoxazolyl)-carbamate], the IC50 lay within 100 to 300 nM in assay [1] and 3000 to 10000 nM in assay [2].

As for `Cc1noc(-c2ccc(CSCCc3ccccc3)cc2)c1NC(=O)OC(C)c1ccccc1Cl` (stereo not shown) [Compound 124], the figures for the IC50 in assay [1] and in assay [2] were 100 to 300 nM and 10000 to 30000 nM, respectively.

With `CCCCSCc1ccc(-c2onc(C)c2NC(=O)OC(C)c2ccccc2Cl)cc1` (stereo not shown) [Compound 125, 1-(2-Chlorophenyl)ethyl N-(5-{4-[(butylsulfanyl)methyl]phenyl)-3-methyl-4-isoxazolyl)-carbamate], the values for the IC50 in assay [1] and in assay [2] were 100 to 300 nM and 10000 to 30000 nM, respectively.

For the compound `Cc1noc(-c2ccc(CSCCC(=O)O)cc2)c1NC(=O)OC(C)c1ccccc1Cl` (stereo not shown) [Compound 126, 3-({4-[4-({[1-(2-Chlorophenyl)ethoxy]carbonyl}amino)-3-methyl-5-isoxazolyl]benzyl}-sulfanyl)propanoic acid], the IC50 in assay [1] lay within 10 to 30 nM; in assay [2], 3000 to 10000 nM.

As to `COCc1cccc(-c2onc(C)c2NC(=O)OC(C)c2ccccc2Cl)c1` (stereo not shown) [Compound 128, 1-(2-Chlorophenyl)ethyl N-{5-[3-(methoxymethyl)phenyl]-3-methyl-4-isoxazolyl}carbamate], the results for the IC50 in assay [1] and in assay [2] were 100 to 300 nM and 3000 to 10000 nM, respectively.

Take `CCOCc1cccc(-c2onc(C)c2NC(=O)OC(C)c2ccccc2Cl)c1` (stereo not shown) [Compound 129, 1-(2-Chlorophenyl)ethyl N-{5-[3-(ethoxymethyl)phenyl]-3-methyl-4-isoxazolyl}carbamate]: the IC50 in assay [1] lay within 300 to 1000 nM; in assay [2], 3000 to 10000 nM.

On to `COC(=O)CSCc1cccc(-c2onc(C)c2NC(=O)OC(C)c2ccccc2Cl)c1` (stereo not shown) [Compound 130, Methyl 2-({3-[4-({[1-(2-chlorophenyl)ethoxy]carbonyl}amino)-3-methyl-5-isoxazolyl]-benzyl}sulfanyl)acetate], for which the IC50 was in the range of 300 to 1000 nM in assay [1] and 3000 to 10000 nM in assay [2].

Take `CCSCc1cccc(-c2onc(C)c2NC(=O)OC(C)c2ccccc2Cl)c1` (stereo not shown) [Compound 132, 1-(2-Chlorophenyl)ethyl N-(5-{3-[(ethylsulfanyl)methyl]phenyl}-3-methyl-4-isoxazolyl)carbamate]: the IC50 in assay [1] is 300 to 1000 nM; in assay [2] it was 3000 nM.

For the compound `COC(=O)CS(=O)(=O)Cc1ccc(-c2onc(C)c2NC(=O)OC(C)c2ccccc2Cl)cc1` (stereo not shown) [Compound 133], the IC50 in assay [1] is 100 to 300 nM; in assay [2], 10000 nM.

Take `COC(=O)C[S+]([O-])Cc1ccc(-c2onc(C)c2NC(=O)OC(C)c2ccccc2Cl)cc1` (stereo not shown) [Compound 134, Methyl 2-({4-[4-({[1-(2-chlorophenyl)ethoxy]carbonyl}amino)-3-methyl-5-isoxazolyl]-benzyl}sulfinyl)acetate]: the IC50 in assay [1] was 100 to 300 nM; in assay [2], 3000 to 10000 nM.

For the compound `Cc1noc(-c2ccc(CSCC(O)CO)cc2)c1NC(=O)OC(C)c1ccccc1Cl` (stereo not shown) [Compound 135], the IC50 in assay [1] fell in the range of 100 to 300 nM; in assay [2] it was 3000 to 10000 nM.

For `Cc1noc(-c2ccc(CSc3nc[nH]n3)cc2)c1NC(=O)OC(C)c1ccccc1Cl` (stereo not shown) [Compound 136, 1-(2-Chlorophenyl)ethyl N-(3-methyl-5-{4-[(1H-1,2,4-triazol-3-ylsulfanyl)methyl]-phenyl}-4-isoxazolyl)carbamate], the IC50 in assay [1] fell in the range of 100 to 300 nM; in assay [2], 3000 to 10000 nM.

In the case of `Cc1noc(-c2ccc(CSc3nnnn3C)cc2)c1NC(=O)OC(C)c1ccccc1Cl` (stereo not shown) [Compound 137, 1-(2-Chlorophenyl)ethyl N-[3-methyl-5-(4-{[(1-methyl-1H-1,2,3,4-tetrazol-5-yl)-sulfanyl]methyl}phenyl)-4-isoxazolyl]carbamate], the IC50 was 100 to 300 nM in assay [1] and 3000 to 10000 nM in assay [2].

`CNC(=O)CSCc1ccc(-c2onc(C)c2NC(=O)OC(C)c2ccccc2Cl)cc1` (stereo not shown) [Compound 138]: the IC50 was in the range of 100 to 300 nM in assay [1] and 3000 to 10000 nM in assay [2].
